# Source: patent US20230233576A1, “ECLITASERTIB FOR USE IN TREATING CONDITIONS INVOLVING SYSTEMIC HYPERINFLAMMATORY RESPONSE” (priority 2020, published 2023)
# Tests used:
# [1] = system: adult participants hospitalized for severe COVID-19; assay: Phase 1b severe COVID-19 study: clinical laboratory abnormalities (PCSA); type: in vivo, human; conditions: TEAE period
# Description: Standard clinical laboratory parameters (hematology, blood chemistry) were measured per protocol.
# For laboratory parameters (hematology, clinical chemistry, and urinalysis), vital signs, and ECG, incidences of potentially clinically significant abnormality (PCSA) values, actual values and change from baseline were summarized by treatment group.
# For all laboratory, vital signs and ECG parameters, raw data and change from baseline were summarized in descriptive statistics by treatment group and scheduled time of measurement, with the exception of AST, ALT and alkaline phosphatase: instead of summarizing data in descriptive statistics, participants' profiles were presented through graphics by treatment group and with a color code to identify sites. The reason was that blood samples were processed by local laboratories with different normal ranges. For the rest of clinical laboratory these parameters it is reasonable to pool data as they are standard procedure and no significant differences in normal ranges were expected.
# SIRS = assay: acute mouse model of SIRS; type: in vivo
# From the text: The RIPK1 Inhibitor was studied in an acute mouse model of SIRS. […] There is also rationale that vascular permeability and endothelial dysfunction contribute to SIRS/shock and lethality. […] Additional clinical evidence for the role of RIPK1 in driving systemic inflammation comes from evidence in a rare population of patients that have a mutation in RIPK1 that blocks caspase-mediated cleavage and leads to hyperactivation of this kinase. These patients have periodic fevers with coinciding elevations of cytokines including IL-6 and elevated levels of pRIPK1 in their PBMCs. Patient-derived cells are responsive to RIPK1 kinase inhibition, and some patients are responsive to anti-IL-6 therapy.
# [2] = abnormal baseline (LLN/ULN or PCSA), 600 mg (N = 47), safety population
# [3] = all baseline values counted in one unique group (as normal), 600 mg (N = 47), safety population
# [4] = missing baseline, 600 mg (N = 47), safety population
# [5] = normal baseline, 600 mg (N = 47), safety population
smiles,measurement,setting,value
"CN1C(=O)[C@@H](NC(=O)c2nnc(Cc3ccccc3)[nH]2)COc2cccnc21 [RIPK1 Inhibitor, (S)-5-benzyl-N-(5-methyl-4-oxo-2,3,4,5-tetrahydropyrido[3,2-b][1,4]oxazepin-3-yl)-4H-1,2,4-triazole-3-carboxamide]",participants with ALT>3 ULN,[1]; 600 mg,9 participants
same,participants with ALT>5 ULN,[1]; 600 mg,1 participants
same,participants with AST>5 ULN,[1]; 600 mg,1 participants
same,participants with PCSAs of AST>3 ULN,[1]; 600 mg,2 participants
same,participants with alkaline phosphatase>1.5 ULN,[1]; 600 mg,2 participants
same,participants with total bilirubin>1.5 ULN,[1]; 600 mg,One
same,PCSA Alanine Aminotransferase (ALT) >3 ULN,[1]; [2],7/20
same,PCSA Alanine Aminotransferase (ALT) >5 ULN,[1]; [2],0/20
same,PCSA Alanine Aminotransferase (ALT) >10 ULN,[1]; [2],0/20
same,PCSA Alanine Aminotransferase (ALT) >20 ULN,[1]; [2],0/20
same,PCSA Albumin ≤25 g/L,[1]; [2],0/28
same,PCSA Alkaline Phosphatase >1.5 ULN,[1]; [2],0/0
same,PCSA Aspartate Aminotransferase (AST) >3 ULN,[1]; [2],1/24
same,PCSA Aspartate Aminotransferase (AST) >5 ULN,[1]; [2],0/24
same,PCSA Aspartate Aminotransferase (AST) >10 ULN,[1]; [2],0/24
same,PCSA Basophils >0.1 * 10^9/L,[1]; [2],0/0
same,PCSA C-Reactive Protein >2 ULN or >10 mg/L (if ULN not provided),[1]; [2],42/46
same,PCSA Conjugated bilirubin >35% Bilirubin and Bilirubin >1.5 ULN,[1]; [2],0/0
same,PCSA Creatinine Clearance (CG) <15 mL/min (end stage renal disease),[1]; [2],0/18
same,PCSA Creatinine Clearance (CG) ≥15-<30 mL/min (severe decrease in GFR),[1]; [2],0/18
same,PCSA Creatinine Clearance (CG) ≥30-<60 mL/min (moderate decrease in GFR),[1]; [2],4/18
same,PCSA Creatinine Clearance (CG) ≥60-<90 mL/min (mild decrease in GFR),[1]; [2],11/18
same,PCSA Creatinine ≥150 μmol/L (Adults),[1]; [2],1/8
same,PCSA Eosinophils >0.5 * 10^9/L or >ULN (if ULN ≥ 0.5 * 10^9/L),[1]; [2],0/9
same,PCSA Erythrocyte Count (RBC) ≥6 * 10^12/L,[1]; [2],1/17
same,PCSA Glucose ≤3.9 mmol/L and <LLN,[1]; [2],1/33
same,PCSA Glucose ≥11.1 mmol/L (unfasted); ≥7 mmol/L (fasted),[1]; [2],18/33
same,PCSA Hematocrit ≤0.37 v/v (Male); ≤0.32 v/v (Female),[1]; [2],11/17
same,PCSA Hematocrit ≥0.55 v/v (Male); ≥0.5 v/v (Female),[1]; [2],0/17
same,PCSA Hemoglobin ≤115 g/L (Male); ≤95 g/L (Female),[1]; [2],4/18
same,PCSA Hemoglobin ≥185 g/L (Male); ≥165 g/L (Female),[1]; [2],0/18
same,PCSA Lymphocytes >4 * 10^9/L,[1]; [2],2/11
same,PCSA Monocytes >0.7 * 10^9/L,[1]; [2],6/10
same,PCSA Neutrophils <1.5 * 10^9/L (Non-Black); <1 * 10^9/L (Black),[1]; [2],0/8
same,PCSA Platelet Count <100 * 10^9/L,[1]; [2],1/11
same,PCSA Platelet Count ≥700 * 10^9/L,[1]; [2],1/11
same,PCSA Potassium <3 mmol/L,[1]; [2],0/7
same,PCSA Potassium ≥5.5 mmol/L,[1]; [2],1/7
same,PCSA Sodium ≤129 mmol/L,[1]; [2],0/8
same,PCSA Sodium ≥160 mmol/L,[1]; [2],0/8
same,PCSA Total Bilirubin >1.5 ULN,[1]; [2],0/2
same,PCSA Total Bilirubin >2 ULN,[1]; [2],0/2
same,PCSA White blood cell count <3 * 10^9/L (Non-Black); <2 * 10^9/L (Black),[1]; [2],0/10
same,PCSA White blood cell count ≥16 * 10^9/L,[1]; [2],1/10
same,PCSA Creatinine ≥30% change from baseline,[1]; [3],3/47
same,PCSA Creatinine ≥100% change from baseline,[1]; [3],0/47
same,PCSA Hemoglobin Decrease from baseline ≥20 g/L,[1]; [3],4/47
same,PCSA Alanine Aminotransferase (ALT) >3 ULN,[1]; [4],0/0
same,PCSA Alanine Aminotransferase (ALT) >5 ULN,[1]; [4],0/0
same,PCSA Alanine Aminotransferase (ALT) >10 ULN,[1]; [4],0/0
same,PCSA Alanine Aminotransferase (ALT) >20 ULN,[1]; [4],0/0
same,PCSA Albumin ≤25 g/L,[1]; [4],0/0
same,PCSA Alkaline Phosphatase >1.5 ULN,[1]; [4],0/0
same,PCSA Aspartate Aminotransferase (AST) >3 ULN,[1]; [4],0/0
same,PCSA Aspartate Aminotransferase (AST) >5 ULN,[1]; [4],0/0
same,PCSA Aspartate Aminotransferase (AST) >10 ULN,[1]; [4],0/0
same,PCSA C-Reactive Protein >2 ULN or >10 mg/L (if ULN not provided),[1]; [4],0/0
same,PCSA Conjugated bilirubin >35% Bilirubin and Bilirubin >1.5 ULN,[1]; [4],0/1
same,PCSA Glucose ≤3.9 mmol/L and <LLN,[1]; [4],0/3
same,PCSA Glucose ≥11.1 mmol/L (unfasted); ≥7 mmol/L (fasted),[1]; [4],3/3
same,PCSA Total Bilirubin >1.5 ULN,[1]; [4],0/0
same,PCSA Total Bilirubin >2 ULN,[1]; [4],0/0
same,PCSA Alanine Aminotransferase (ALT) >3 ULN,[1]; [5],2/27
same,PCSA Alanine Aminotransferase (ALT) >5 ULN,[1]; [5],1/27
same,PCSA Alanine Aminotransferase (ALT) >10 ULN,[1]; [5],0/27
same,PCSA Alanine Aminotransferase (ALT) >20 ULN,[1]; [5],0/27
same,PCSA Albumin ≤25 g/L,[1]; [5],0/18
same,PCSA Alkaline Phosphatase >1.5 ULN,[1]; [5],2/46
same,PCSA Aspartate Aminotransferase (AST) >3 ULN,[1]; [5],1/23
same,PCSA Aspartate Aminotransferase (AST) >5 ULN,[1]; [5],1/23
same,PCSA Aspartate Aminotransferase (AST) >10 ULN,[1]; [5],0/23
same,PCSA Basophils >0.1 * 10^9/L,[1]; [5],3/29
same,PCSA C-Reactive Protein >2 ULN or >10 mg/L (if ULN not provided),[1]; [5],0/1
same,PCSA Conjugated bilirubin >35% Bilirubin and Bilirubin >1.5 ULN,[1]; [5],0/46
same,PCSA Creatinine Clearance (CG) <15 mL/min (end stage renal disease),[1]; [5],0/29
same,PCSA Creatinine Clearance (CG) ≥15-<30 mL/min (severe decrease in GFR),[1]; [5],0/29
same,PCSA Creatinine Clearance (CG) ≥30-<60 mL/min (moderate decrease in GFR),[1]; [5],0/29
same,PCSA Creatinine Clearance (CG) ≥60-<90 mL/min (mild decrease in GFR),[1]; [5],5/29
same,PCSA Creatinine ≥150 μmol/L (Adults),[1]; [5],0/39
same,PCSA Eosinophils >0.5 * 10^9/L or >ULN (if ULN ≥ 0.5 * 10^9/L),[1]; [5],1/20
same,PCSA Erythrocyte Count (RBC) ≥6 * 10^12/L,[1]; [5],0/30
same,PCSA Glucose ≤3.9 mmol/L and <LLN,[1]; [5],1/10
same,PCSA Glucose ≥11.1 mmol/L (unfasted); ≥7 mmol/L (fasted),[1]; [5],5/10
same,PCSA Hematocrit ≤0.37 v/v (Male); ≤0.32 v/v (Female),[1]; [5],4/30
same,PCSA Hematocrit ≥0.55 v/v (Male); ≥0.5 v/v (Female),[1]; [5],0/30
same,PCSA Hemoglobin ≤115 g/L (Male); ≤95 g/L (Female),[1]; [5],1/29
same,PCSA Hemoglobin ≥185 g/L (Male); ≥165 g/L (Female),[1]; [5],0/29
same,PCSA Lymphocytes >4 * 10^9/L,[1]; [5],3/18
same,PCSA Monocytes >0.7 * 10^9/L,[1]; [5],12/19
same,PCSA Neutrophils <1.5 * 10^9/L (Non-Black); <1 * 10^9/L (Black),[1]; [5],2/21
same,PCSA Platelet Count <100 * 10^9/L,[1]; [5],0/36
same,PCSA Platelet Count ≥700 * 10^9/L,[1]; [5],0/36
same,PCSA Potassium <3 mmol/L,[1]; [5],0/40
same,PCSA Potassium ≥5.5 mmol/L,[1]; [5],4/40
same,PCSA Sodium ≤129 mmol/L,[1]; [5],1/39
same,PCSA Sodium ≥160 mmol/L,[1]; [5],0/39
same,PCSA Total Bilirubin >1.5 ULN,[1]; [5],1/45
same,PCSA Total Bilirubin >2 ULN,[1]; [5],0/45
same,PCSA White blood cell count <3 * 10^9/L (Non-Black); <2 * 10^9/L (Black),[1]; [5],1/37
same,PCSA White blood cell count ≥16 * 10^9/L,[1]; [5],2/37
same,SIRS induction,SIRS,dose-dependently blocked and at the highest dose completely abolished
